Reference: patent publication US12247019B2 (Centaurus Therapeutics, priority 2018, dated 2025)
Where two headings read alike, the source gives them in different places.

Assays:
[1] = target: T1, Des1 (Homo sapiens, UniProt O15121); test: Jurkat T cell measurement of conversion of dihydroceramide to ceramide (Des1 activity, LC-MS/MS of NBD-C6-ceramide); format: cell-based; design: Jurkat clone E6-1 cells were grown and then seeded at 10^6 cells/mL in a 96-well plate; endogenous in cells; host or cells: Jurkat clone E6-1; details: 0.5 uM compound; Jurkat clone E6-1 cells, 10 μM NBD-C6-dihydroceramide, 3 hours at 37° C.; read-out: Des1 % Inhib (0.5 uM)
T1 sequence (O15121 1-323): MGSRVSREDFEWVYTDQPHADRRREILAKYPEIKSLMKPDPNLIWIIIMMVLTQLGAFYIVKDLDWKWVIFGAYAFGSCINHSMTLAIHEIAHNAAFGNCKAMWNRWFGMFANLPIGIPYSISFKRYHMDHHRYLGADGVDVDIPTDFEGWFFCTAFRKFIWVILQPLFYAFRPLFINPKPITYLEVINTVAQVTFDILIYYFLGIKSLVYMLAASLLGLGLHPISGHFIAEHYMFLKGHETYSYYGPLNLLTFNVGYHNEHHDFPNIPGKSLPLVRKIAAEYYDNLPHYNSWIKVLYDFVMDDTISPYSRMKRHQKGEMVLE
Protocol: (§1) Jurkat T Cell Measurement of Conversion of Dihydroceramide to Ceramide
Jurkat clone E6-1 cells were grown and then seeded at 10^6 cells/mL in a 96-well plate (400 μL in each well. The cells were administered 100 μL of cell culture media containing 50-μM NBD-C6-dihydroceramide (Des1 substrate), affording a final concentration of substrate of 10 μM. The cells were incubated with substrate at 4° C. for 30 minutes. Following the incubation at 4° C., the cell suspension was centrifuged at 1200 rpm for 3 minutes, and the cell pellet is resuspended in 400 μL of fresh media containing various concentrations of either fenretinide (known Des1 inhibitor control compound) or test article. The final concentrations of control compound and test compounds were tested in a range from 0-10 μM. The cells and compounds were incubated at 37° C. for 3 hours. Following the 3-hour incubation, the plate was centrifuged at 2500 g for 3 minutes at 4° C., followed by collection and transfer of 200 μL of the supernatant to a new 96-well plate with 300 μL of methanol an containing appropriate internal standards for liquid chromatography/tandem mass spectroscopy (LC/MS/MS) analysis (internal standard: 500 nM labetalol and 100 nM alprazolam). The samples were vortexed for 2 minutes followed by centrifugation at 3,220 g for 20 minutes. […]

[2] = target: T1, Des1; test: as above; format: cell-based; design: endogenous in cells; host or cells: Jurkat clone E6-1; details: Jurkat clone E6-1 cells; for inhibition at 0.5 µM: 0.5 uM compound, read-out: Des1 % Inhib (0.5 uM)
Protocol: as §1
Jurkat clone E6-1 cells were grown and then seeded at 10^6 cells/mL in a 96-well plate (400 μL in each well. The cells were administered 100 μL of cell culture media containing 50-μM NBD-C6-dihydroceramide (Des1 substrate), affording a final concentration of substrate of 10 μM. The cells were incubated with substrate at 4° C. for 30 minutes. Following the incubation at 4° C., the cell suspension was centrifuged at 1200 rpm for 3 minutes, and the cell pellet is resuspended in 400 μL of fresh media containing various concentrations of either fenretinide (known Des1 inhibitor control compound) or test article. The final concentrations of control compound and test compounds were tested in a range from 0-10 μM. The cells and compounds were incubated at 37° C. for 3 hours. Following the 3-hour incubation, the plate was centrifuged at 2500 g for 3 minutes at 4° C., followed by collection and transfer of 200 μL of the supernatant to a new 96-well plate with 300 μL of methanol an containing appropriate internal standards for liquid chromatography/tandem mass spectroscopy (LC/MS/MS) analysis (internal standard: 500 nM labetalol and 100 nM alprazolam). The samples were vortexed for 2 minutes followed by centrifugation at 3,220 g for 20 minutes. Following centrifugation, 200 μL of the supernatant was transferred to a new 96-well plate for LC-MS/MS analysis to determine the amount of NBD-C6-ceramide (Des1 product) produced. The assay was typically performed in duplicate. A reduction of at least 30% compared to vehicle control (0 μM test article) is indicative of an active compound, and a reduction of 75% compared to vehicle control is preferred.

[3] = system: insulin-stimulated Akt phosphorylation in C2C12 myotubes; test: C2C12 myotube assay of insulin-stimulated phosphorylation of Akt; format: cell-based; details: 0.75 mM BSA-conjugated palmitate 16 hours, insulin 100 nM 10 minutes; read-out: half-maximal effective concentration (EC50) for increasing insulin-stimulated Akt phosphorylation in the presence of palmitate
Protocol: C2C12 Myotube Assay of Insulin-Stimulated Phosphorylation of Akt:
C2C12 myotubes are treated with 0.75 mM BSA-conjugated palmitate for 16 hours in the presence or absence of 7 non-zero concentrations of fenretinide (Des1 inhibitor control compound) or various test articles, followed by a 10-minute stimulation with insulin (100 nM). Cells are subsequently harvested and boiled in reducing SDS sample buffer and subjected to SDS-PAGE followed by detection of phosphorylated Akt, total Akt, and a suitable loading control (e.g. actin or GAPDH) by western blot using fluorescently-conjugated secondary antibodies. Band intensities are quantitated by an Odyssey imaging system (Li—COR), but could also be performed using HRP-conjugated secondary antibodies/enhanced chemiluminescence or by colorimetric readout.
Moreover, while currently contemplated for SDS-PAGE/immunoblot format, this assay could be adapted to ELISA or in-cell western (immunocytochemistry) formats for higher throughput testing of compounds. An increase of 30% compared to vehicle control (0 μM test article) is indicative of an active compound, and an increase of 50% compared to control is preferred. […] Des1 inhibitors disclosed herein are expected to be effective in this assay.

[4] = system: CFTR-KO mice; details: Guilbault et al. 2008, 2009, cited from earlier work
[5] = 10 μM NBD-C6-dihydroceramide, 3 hours at 37° C.
[6] = 10 μM NBD-C6-dihydroceramide, 3 hours at 37° C., read-out: Des1 IC50

SMILES	inhibition at 0.5 µM [2, 5] [%]	IC50 [2, 6] [nM]	other results
O=S(=O)(Nc1ccc(O)cn1)N1CCN(c2ccc(F)cc2)CC1 [Example 72]			inhibition at 0.5 µM [1]: 50.2%
O=C(Nc1ccc(O)cn1)N1CCN(c2ccc(F)nc2)CC1 [Example 50, 4-(6-fluoropyridin-3-yl)-N-(5-hydroxypyridin-2-yl) piperazine-1-carboxamide]	83		
O=C(Nc1ccc(O)cn1)OC1CCN(c2ccc(Cl)cc2Cl)CC1 [Example 58, 1-(2,4-dichlorophenyl)piperidin-4-yl N-(5-hydroxypyridin-2-yl)carbamate]	96.8	4	
O=C(Nc1ccc(O)cn1)OC1CCN(c2ccc(C(F)(F)F)cc2)CC1 [Example 57, 1-[4-(trifluoromethyl)phenyl] piperidin-4-yl N-(5-hydroxypyridin-2-yl) carbamate]	95.5	1	
CCCCCCOC(=O)Nc1ccc(O)cn1 [Example 41, Hexyl N-(5-hydroxypyridin-2-yl)carbamate]	95.1	13	
O=C(Nc1ccc(O)cn1)N1CCCCCC1 [Example 11, N-(5-hydroxypyridin-2-yl)azepane-1-carboxamide]	38.5		
CC1=C(/C=C/C(C)=C/C=C/C(C)=C/C(=O)Nc2ccc(O)cc2)C(C)(C)CCC1 [fenretinide]			EC50 [3]: 600 nM; susceptibility to infection with Pseudomonas aeruginosa ([4]; CFTR-KO mice): reduce susceptibility to infection; ratio of lung arachidonic acid (AA) to docosahexaenoic acid (DHA) ([4]; lungs of CFTR-KO mice): normalize this ratio; IC50 ([2]; read-out: half-maximal inhibitory concentration (IC50)): 100 to 250 nM
O=C(Nc1ccc(O)cn1)N1CCN(c2ccccc2F)CC1 [Example 12, 4-(2-fluorophenyl)-N-(5-hydroxypyridin-2-yl)piperazine-1-carboxamide]	90.5	54	
O=C(Nc1ccc(O)cn1)NC1CCCN(c2ccc(F)cc2)C1 (stereo not drawn) [Example 47, 1-[1-(4-fluorophenyl)piperidin-3-yl]-3-(5-hydroxypyridin-2-yl)urea]	51.8		

Second part, led by results:

inhibition at 0.5 µM [2, 5] [%]	IC50 [2, 6] [nM]	SMILES	other results
75.1		O=C(NCc1ccc(Cl)cc1)Nc1ccc(O)cn1 [Example 76, 1-[(4-chlorophenyl)methyl]-3-(5-hydroxypyridin-2-yl)urea]	
19.2		O=S(=O)(Nc1ccc(O)cn1)C1CCN(c2ccccc2)CC1 [Example 64, N-(5-hydroxypyridin-2-yl)-1-phenylpiperidine-4-sulfonamide]	
	100	O=C(Nc1ccc(O)cn1)N1CCCN(c2ccc(F)cn2)CC1 [Example 84, 4-(5-fluoropyridin-2-yl)-N-(5-hydroxypyridin-2-yl)-1,4-diazepane-1-carboxamide]	
39.2		Cn1cc(C2CCC(C(=O)Nc3ccc(O)cn3)CC2)cn1 (stereo not drawn) [Example 90, N-(5-hydroxypyridin-2-yl)-4-(1-methyl-1H-pyrazol-4-yl)cyclohexane-1-carboxamide]	
69.4	310	CC(C)(C)c1ccc(S(=O)(=O)Nc2ccc(O)cn2)cc1 [Example 62, 4-tert-Butyl-N-(5-hydroxypyridin-2-yl)benzene-1-sulfonamide]	
83.8	110	CC(C)CCCCCS(=O)(=O)Nc1ccc(O)cn1 [Example 70, N-(5-Hydroxypyridin-2-yl)-6-methylheptane-1-sulfonamide]	
41.9		O=S(=O)(Nc1ccc(O)cn1)N1CCN(c2ccc(Cl)cn2)CC1 [Example 73, 4-(5-Chloropyridin-2-yl)-N-(5-hydroxypyridin-2-yl)piperazine-1-sulfonamide]	
78.4		Cn1ncc2ccc(N3CCN(C(=O)Nc4ccc(O)cn4)CC3)cc21 [Example 82, N-(5-hydroxypyridin-2-yl)-4-(1-methyl-1H-indazol-6-yl)piperazine-1-carboxamide]	
	55	O=C(Nc1ccc(O)cn1)N1CCCN(c2ccc(Cl)cn2)CC1 [Example 85, 4-(5-chloropyridin-2-yl)-N-(5-hydroxypyridin-2-yl)-1,4-diazepane-1-carboxamide]	
